This test has as its target T1, MAGL protein (Homo sapiens, UniProt Q99685).
T1 sequence (Q99685 1-303): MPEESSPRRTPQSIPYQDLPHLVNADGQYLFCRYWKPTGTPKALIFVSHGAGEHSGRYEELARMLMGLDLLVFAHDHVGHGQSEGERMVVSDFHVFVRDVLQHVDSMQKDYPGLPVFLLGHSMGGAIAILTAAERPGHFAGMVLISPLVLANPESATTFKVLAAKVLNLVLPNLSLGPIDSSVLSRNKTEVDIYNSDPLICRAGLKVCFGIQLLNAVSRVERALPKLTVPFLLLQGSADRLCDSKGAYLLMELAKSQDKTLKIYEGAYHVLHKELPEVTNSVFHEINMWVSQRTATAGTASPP
In words: 2-AG assay: MAGL inhibitory activity by hydrolysis of 2-arachidonoylglycerol to arachidonic acid, followed by mass spectrometry. The class given is biochemical. The note with it: 8 μM 2-arachidonoylglycerol, 15 min preincubation, 30 min reaction at RT, RapidFire MS readout. Put shortly: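 MAGL was preincubated 15 min at RT with compound (12.5 to […], 3-fold steps) in 50 mM TRIS, 1 mM EDTA, 0.01% Tween-20, 2.5% DMSO. The reaction ran 30 min at RT with 8 μM 2-AG. Arachidonic acid was quantified by RapidFire SPE-MS/MS against a d8-arachidonic acid internal standard.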

Turning to `Cn1ncc(CC2CC3(C2)CN(C(=O)N2CC4(CC(c5nc(C6(O)CC6)n[nH]5)C4)C2)C3)c1C(F)(F)F` [compound 815], half-maximal inhibition (IC50) was put at 0.6 nM.

With `O=C(N1CC2(CC(Cc3n[nH]c(C4(C(F)(F)F)CC4)n3)C2)C1)N1CC2(CC(c3nnc(C4CC4)[nH]3)C2)C1` [compound 816], the concentration for half-maximal inhibition (IC50) (commonly the concentration that inhibits the measured activity by half) stood at 1.61 nM. Against the preceding compound, the IC50 is about 2.7-fold higher.

In turn, `CS(=O)(=O)c1ccc(CC2CC3(C2)CN(C(=O)N2CC4(CC(c5nc(C6COC6)n[nH]5)C4)C2)C3)cc1` [compound 817] showed an IC50 of 180 nM.

`Cc1cc(C(F)F)nn1CC1CC2(C1)CN(C(=O)N1CC3(CC(c4nc(C5CC5)n[nH]4)C3)C1)C2` [compound 818] gave a half-maximal inhibitory concentration (IC50) of 0.59 nM.

`O=C(N1CC2(CC(Cc3ncc(F)cc3F)C2)C1)N1CC2(CC(c3nc(C(F)(F)F)n[nH]3)C2)C1` [compound 819] registered an IC50 of 6.59 nM.

As for `Cc1cc(C(C)(C)C)nn1-c1ccc(C2CN(C(=O)N3CC4(CC(c5nc(C6(O)CC6)n[nH]5)C4)C3)C2)cc1` [compound 820], the half-inhibitory concentration (IC50) came to 0.77 nM.

With `Cc1cc(C2CC2)nn1-c1ccc(C2CN(C(=O)N3CC4(CC(c5nc(C6(O)CC6)n[nH]5)C4)C3)C2)cc1` [compound 821], the IC50 is 2 nM.

For the compound `O=C(N1CC2(CC(Cn3ccc(C4CC4)n3)C2)C1)N1CC2(CC(c3nc(C4CC4)n[nH]3)C2)C1` [compound 822], the IC50 is 0.88 nM.

`Cn1cc(-c2ccc(C3CN(C(=O)N4CC5(CC(c6nc(C7(O)CC7)n[nH]6)C5)C4)C3)cc2)c(C(F)(F)F)n1` [compound 823] showed a concentration for half-maximal inhibition (IC50) of 0.21 nM.

The compound `O=C(N1CC2(CC(Cc3ccc(C(F)(F)F)cn3)C2)C1)N1CC2(CC(c3nc(C4COC4)n[nH]3)C2)C1` [compound 824] yielded an IC50 of 10.3 nM. Compared with the last compound, the IC50 is about 49-fold higher.

On to `O=C(N1CC(C23CC(NCC4(C(F)(F)F)CC4)(C2)C3)C1)N1CC2(CC(c3nc(C4(O)CC4)n[nH]3)C2)C1` [compound 825], for which the IC50 turned out to be 4.37 nM.

In turn, `O=C(N1CC2(CC(c3nnc(C4CC4)[nH]3)C2)C1)N1CC2(CC(C(F)(F)c3ccc(C(F)(F)F)nc3)C2)C1` [compound 826] came in with a half-inhibitory concentration (IC50) of 0.56 nM.

The compound `CS(=O)(=O)c1cc(C(F)(F)F)ccc1CC1CC2(C1)CN(C(=O)N1CC3(CC(c4nc(C5COC5)n[nH]4)C3)C1)C2` [compound 827] showed a concentration for half-maximal inhibition (IC50) of 21.2 nM. Against the preceding compound, the IC50 is about 38-fold higher.

As for `O=C(N1CC2(CC(c3ccc(C(F)(F)F)nc3)C2)C1)N1CC2(CC(c3nc(C4(O)CC4)n[nH]3)C2)C1` [compound 829], the half-maximal inhibitory concentration (IC50) came out at 38.4 nM.

In turn, `N=S(=O)(c1ccc(CC2CC3(C2)CN(C(=O)N2CC4(CC(c5nc(C6COC6)n[nH]5)C4)C2)C3)cc1)C(F)(F)F` (centres unmarked) [compound 830] returned an IC50 of 36.5 nM.

With `O=C(N1CC2(CC(Cc3ccc(Cl)cn3)C2)C1)N1CC2(CC(c3ncn[nH]3)C2)C1` [compound 831], half-maximal inhibition (IC50) was put at 1220 nM.

The compound `N#Cc1cc(CC2CC3(C2)CN(C(=O)N2CC4(CC(c5nnc(C6CC6)[nH]5)C4)C2)C3)cnc1C(F)(F)F` [compound 833] returned a half-inhibitory concentration (IC50) of 0.39 nM. This IC50 lies about 3100-fold lower than the previous one.

Consider `Cn1cc(-c2ccc(C3CN(C(=O)N4CC5(CC(c6nnc(C7CC7)[nH]6)C5)C4)C3)cc2)c(C(F)(F)F)n1` [compound 834], for which the IC50 stood at 0.06 nM. This IC50 lies about 6.5-fold lower than the previous one.

For `O=C(N1CC2(CC(Cc3ccc(F)cc3F)C2)C1)N1CC2(CC(c3nc(C4COC4)n[nH]3)C2)C1` [compound 835], the IC50 stood at 2.37 nM.

`Cn1ncc(P(C)(C)=O)c1CN1CC2(C1)CN(C(=O)N1CC3(CC(c4nc(C5CC5)n[nH]4)C3)C1)C2` [compound 838] came in with an IC50 of 102 nM. This IC50 lies about 43-fold higher than the previous one.

For the compound `O=C(N1CC(c2ccc(-n3nc(C(F)F)cc3C3CC3)cc2)C1)N1CC2(CC(c3nnc(C4CC4)[nH]3)C2)C1` [compound 839], the IC50 is 0.27 nM.

In turn, `Cc1nc(C)n(-c2ccc(C3CN(C(=O)N4CC5(CC(c6nnc(C7CC7)[nH]6)C5)C4)C3)cc2)n1` [compound 841] came in with a 50% inhibitory concentration (IC50) of 10.6 nM.

In the case of `N#Cc1cc(C(F)(F)F)ncc1CC1CC2(C1)CN(C(=O)N1CC3(CC(c4nnc(C5CC5)[nH]4)C3)C1)C2` [compound 843], the midpoint of inhibition, the IC50, lay at 1.07 nM.

For `O=C(N1CC2(CC(Cn3ccc(C(F)(F)F)n3)C2)C1)N1CC2(CC(c3nc(C4CC4)n[nH]3)C2)C1` [compound 844], the half-maximal inhibitory concentration (IC50) was 0.71 nM.

`O=C(N1CC2(CC(c3nc(C4CC4)n[nH]3)C2)C1)N1CC2(CC(C(F)c3ccc(C(F)(F)F)nc3)C2)C1` (centres unmarked) [compound 845] registered an IC50 of 9.83 nM.

With `Cc1cc(C2CC2)n(CC2CC3(C2)CN(C(=O)N2CC4(CC(c5nc(C6CC6)n[nH]5)C4)C2)C3)n1` [compound 846], 0.78 nM corresponded to half-maximal inhibition (IC50).

`Cc1cc(C2CC2)nn1CC1CC2(C1)CN(C(=O)N1CC3(CC(c4nc(C5CC5)n[nH]4)C3)C1)C2` [compound 847] showed an IC50 of 0.53 nM.

For the compound `N=S(=O)(c1cccc(OC2CC3(C2)CN(C(=O)N2CC4(CC(c5nc(C6CC6)n[nH]5)C4)C2)C3)c1)C(F)(F)F` (centres unmarked) [compound 848], inhibition was half-maximal at 0.67 nM (IC50).

In turn, `N=S(=O)(c1ccc(CC2CC3(C2)CN(C(=O)N2CC4(CC(c5nc(C6CC6)n[nH]5)C4)C2)C3)c(F)c1)C(F)(F)F` (centres unmarked) [compound 849] came in with a half-inhibitory concentration (IC50) of 0.07 nM.

Regarding `O=C(N1CC2(CC(c3nc(C(F)(F)F)n[nH]3)C2)C1)N1CC2(CN(Cc3ccc(S(=O)(=O)C(F)(F)F)cc3)C2)C1` [compound 850], the IC50 amounted to 13.7 nM.

`O=C(N1CC(c2ccc(-c3cc(C(F)(F)F)n[nH]3)cc2)C1)N1CC2(CC(c3nnc(C4CC4)[nH]3)C2)C1` [compound 851] displayed an IC50 of 0.23 nM.

Take `O=C(N1CC2(CC(Cc3ccc(OC(F)(F)F)cc3)C2)C1)N1CC2(CC(c3nc(C4CC4)n[nH]3)C2)C1` [compound 857]: the IC50 was found to be 0.02 nM.

For the compound `O=C(N1CC2(CC(Cc3ccc(S(=O)(=O)C4CC4)cc3)C2)C1)N1CC2(CC(c3nc(C4CC4)n[nH]3)C2)C1` [compound 859], the IC50 came out at 0.19 nM.

Turning to `O=C(N1CC2(CC(Cn3cnc(C4(C(F)(F)F)CC4)c3)C2)C1)N1CC2(CC(c3nc(C4CC4)n[nH]3)C2)C1` [compound 860], the half-maximal inhibitory concentration (IC50) worked out at 2.9 nM.

As to `O=C(N1CC2(CC(Cc3nnc(C4(C(F)(F)F)CC4)o3)C2)C1)N1CC2(CC(c3nnc(C4CC4)[nH]3)C2)C1` [compound 862], half-maximal inhibition (IC50) was put at 1.57 nM.

Compound `O=C(N1CC(C23CC(Cc4ccc(C(F)(F)F)nc4)(C2)C3)C1)N1CC2(CC(c3nc(C4CC4)n[nH]3)C2)C1` [compound 866] had a half-maximal inhibitory concentration (IC50) of 19.1 nM. Compared with the last compound, the IC50 is about 12-fold higher.

`N#Cc1cc(CC2CC3(C2)CN(C(=O)N2CC4(CC(c5nc(C6CC6)n[nH]5)C4)C2)C3)cc(C(F)(F)F)c1` [compound 867] registered a 50% inhibitory concentration (IC50) of 0.1 nM. This IC50 lies about 190-fold lower than the previous one.

Turning to `CCc1ccc(C(=O)N2CCN(C(=O)N3CC4(CC(c5nnc(C6CC6)[nH]5)C4)C3)CC2)cc1` [compound 869], the 50% inhibitory concentration (IC50) was 115 nM. This IC50 lies about 1200-fold higher than the previous one.

With `O=C(N1CC(c2ccc(-n3ccc(C(F)(F)F)n3)cc2)C1)N1CC2(CC(c3nnc(C4CC4)[nH]3)C2)C1` [compound 873], the IC50 was found to be 0.67 nM. Against the preceding compound, the IC50 is about 170-fold lower.

As for `Cc1c(C(F)(F)F)n[nH]c1CN1CC2(C1)CN(C(=O)N1CC3(CC(c4nnc(C5CC5)[nH]4)C3)C1)C2` [compound 874], the IC50 was determined as 2.8 nM.

Regarding `O=C(N1CC(c2ccc(-n3nc(C4CC4)cc3C(F)F)cc2)C1)N1CC2(CC(c3nnc(C4CC4)[nH]3)C2)C1` [compound 875], it took 0.33 nM to reach half-maximal inhibition (IC50). This IC50 is about 8.5-fold lower than that of the compound before.

In turn, `Cc1nc(C)c(CN2CC3(C2)CN(C(=O)N2CC4(CC(c5nnc(C6CC6)[nH]5)C4)C2)C3)s1` [compound 877] came in with an IC50 of 15.2 nM.

The compound `N#Cc1ccc(CN2CC3(C2)CN(C(=O)N2CC4(CC(c5nc(C6CC6)n[nH]5)C4)C2)C3)c(C(F)(F)F)c1` [compound 882] yielded an IC50 of 1.82 nM.

The compound `Cc1cc(C(F)F)n(CC2CC3(C2)CN(C(=O)N2CC4(CC(c5nc(C6CC6)n[nH]5)C4)C2)C3)n1` [compound 883] showed an IC50 of 0.39 nM.

`CP(C)(=O)c1cc(CC2CC3(C2)CN(C(=O)N2CC4(CC(c5nnc(C6CC6)[nH]5)C4)C2)C3)cc(C(F)(F)F)c1` [compound 884] returned a half-inhibitory concentration (IC50) of 1.47 nM.

Consider `CC(C)(C)c1noc(CN2CC3(C2)CN(C(=O)N2CC4(CC(c5nnc(C6CC6)[nH]5)C4)C2)C3)n1` [compound 886], for which the midpoint of inhibition, the IC50, lay at 6.38 nM. Against the preceding compound, the IC50 is about 4.3-fold higher.

With `O=C(N1CC2(CC(c3nnc(C4CC4)[nH]3)C2)C1)N1CC2(CN(Cc3cnn4ccccc34)C2)C1` [compound 887], the IC50 was 5.98 nM.

`O=C(N1CC2(CC(c3nnc(C4CC4)[nH]3)C2)C1)N1CC2(CN(Cc3nc(-c4ccccc4)no3)C2)C1` [compound 888] showed an IC50 of 2.85 nM.

On to `CS(=O)(=O)c1cc(C(F)(F)F)ccc1CN1CC2(C1)CN(C(=O)N1CC3(CC(c4nc(C5CC5)n[nH]4)C3)C1)C2` [compound 889], for which the IC50 amounted to 2.74 nM.

`CP(C)(=O)c1ccc(CC2CC3(C2)CN(C(=O)N2CC4(CC(c5nnc(C6CC6)[nH]5)C4)C2)C3)c(C(F)(F)F)c1` [compound 890]: the half-inhibitory concentration (IC50) turned out to be 1.22 nM.

Compound `COc1cc(Cl)ccc1CN(C)CC1CN(C(=O)N2CC3(CC(c4nnc(C5CC5)[nH]4)C3)C2)C1` [compound 894] displayed an IC50 of 77.5 nM.

On to `Cc1nc(CN2CC3(C2)CN(C(=O)N2CC4(CC(c5nnc(C6CC6)[nH]5)C4)C2)C3)cs1` [compound 896], for which half-maximal inhibition (IC50) was put at 209 nM.

With `Cc1c(CN2CC3(C2)CN(C(=O)N2CC4(CC(c5nnc(C6CC6)[nH]5)C4)C2)C3)cnn1C` [compound 897], the IC50 worked out at 308 nM.

`Cc1nc(C)c(CN2CC3(C2)CN(C(=O)N2CC4(CC(c5nnc(C6CC6)[nH]5)C4)C2)C3)o1` [compound 898] yielded an IC50 of 218 nM. This IC50 and that of the compound before are within 1.5-fold of each other.

`O=C(N1CC2(CC(c3nc(C4CC4)n[nH]3)C2)C1)N1CC2(CN(Cc3cc(C4CC4)n[nH]3)C2)C1` [compound 900] had an IC50 of 25.3 nM.

The compound `Cn1nccc1CN1CC2(C1)CN(C(=O)N1CC3(CC(c4nc(C5CC5)n[nH]4)C3)C1)C2` [compound 901] came in with an IC50 of 136 nM.

Values taken from US20250099448A1, “HETEROCYCLIC COMPOUNDS” (Hoffmann-La Roche Inc., priority 2022, published 2025).
